Experimental data from ChEMBL document CHEMBL1135129, “N-Tetrahydrofuroyl-(L)-phenylalanine derivatives as potent VLA-4 antagonists” (Bioorg Med Chem Lett, 2002).

Columns and labels:
[1] = Oral bioavailability in rat (Sprague-Dawley) (dose 1 mg/kg i.v.); assay type: ADME, organism-based; conditions: in vivo
[2] = Oral bioavailability in rat (Sprague-Dawley) (dose 2 mg/kg); assay type: ADME, organism-based; conditions: in vivo
[3] = target: T1, Integrin alpha-4/beta-1 (Homo sapiens, UniProt P05556+P13612); assay: Inhibition of I-VCAM-Ig binding to Very late antigen 4 (VLA-4); assay type: protein-complex assay
[4] = target: T1, Integrin alpha-4/beta-1; assay: Inhibition of very late antigen-4 alpha4-beta1 (VLA-4), I-VCAM-Ig as radioligand; assay type: protein-complex assay
[5] = Oral bioavailability in rat (Sprague-Dawley); assay type: ADME, organism-based; conditions: in vivo

T1 sequence (P05556 whole entry): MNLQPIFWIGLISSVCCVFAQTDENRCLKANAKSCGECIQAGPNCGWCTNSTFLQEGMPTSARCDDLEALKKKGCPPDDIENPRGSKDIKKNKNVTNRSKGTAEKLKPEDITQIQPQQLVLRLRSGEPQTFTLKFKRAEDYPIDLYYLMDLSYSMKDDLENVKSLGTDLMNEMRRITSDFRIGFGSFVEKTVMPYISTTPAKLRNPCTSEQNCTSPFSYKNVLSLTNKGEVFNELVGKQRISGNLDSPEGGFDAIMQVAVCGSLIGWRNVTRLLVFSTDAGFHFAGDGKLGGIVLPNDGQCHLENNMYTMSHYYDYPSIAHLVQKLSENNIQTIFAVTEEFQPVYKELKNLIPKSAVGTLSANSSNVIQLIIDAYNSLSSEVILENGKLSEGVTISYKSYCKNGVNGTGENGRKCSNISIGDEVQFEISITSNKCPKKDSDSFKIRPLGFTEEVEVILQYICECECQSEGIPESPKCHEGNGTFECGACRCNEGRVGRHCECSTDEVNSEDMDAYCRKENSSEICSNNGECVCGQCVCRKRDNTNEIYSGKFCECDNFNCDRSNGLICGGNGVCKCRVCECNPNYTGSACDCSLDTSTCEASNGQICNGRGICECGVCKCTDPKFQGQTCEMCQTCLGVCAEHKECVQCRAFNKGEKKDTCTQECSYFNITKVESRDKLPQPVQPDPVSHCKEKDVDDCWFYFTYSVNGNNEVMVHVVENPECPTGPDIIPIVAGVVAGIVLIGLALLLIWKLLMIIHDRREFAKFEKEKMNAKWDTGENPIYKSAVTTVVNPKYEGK
T1 sequence (P13612 whole entry): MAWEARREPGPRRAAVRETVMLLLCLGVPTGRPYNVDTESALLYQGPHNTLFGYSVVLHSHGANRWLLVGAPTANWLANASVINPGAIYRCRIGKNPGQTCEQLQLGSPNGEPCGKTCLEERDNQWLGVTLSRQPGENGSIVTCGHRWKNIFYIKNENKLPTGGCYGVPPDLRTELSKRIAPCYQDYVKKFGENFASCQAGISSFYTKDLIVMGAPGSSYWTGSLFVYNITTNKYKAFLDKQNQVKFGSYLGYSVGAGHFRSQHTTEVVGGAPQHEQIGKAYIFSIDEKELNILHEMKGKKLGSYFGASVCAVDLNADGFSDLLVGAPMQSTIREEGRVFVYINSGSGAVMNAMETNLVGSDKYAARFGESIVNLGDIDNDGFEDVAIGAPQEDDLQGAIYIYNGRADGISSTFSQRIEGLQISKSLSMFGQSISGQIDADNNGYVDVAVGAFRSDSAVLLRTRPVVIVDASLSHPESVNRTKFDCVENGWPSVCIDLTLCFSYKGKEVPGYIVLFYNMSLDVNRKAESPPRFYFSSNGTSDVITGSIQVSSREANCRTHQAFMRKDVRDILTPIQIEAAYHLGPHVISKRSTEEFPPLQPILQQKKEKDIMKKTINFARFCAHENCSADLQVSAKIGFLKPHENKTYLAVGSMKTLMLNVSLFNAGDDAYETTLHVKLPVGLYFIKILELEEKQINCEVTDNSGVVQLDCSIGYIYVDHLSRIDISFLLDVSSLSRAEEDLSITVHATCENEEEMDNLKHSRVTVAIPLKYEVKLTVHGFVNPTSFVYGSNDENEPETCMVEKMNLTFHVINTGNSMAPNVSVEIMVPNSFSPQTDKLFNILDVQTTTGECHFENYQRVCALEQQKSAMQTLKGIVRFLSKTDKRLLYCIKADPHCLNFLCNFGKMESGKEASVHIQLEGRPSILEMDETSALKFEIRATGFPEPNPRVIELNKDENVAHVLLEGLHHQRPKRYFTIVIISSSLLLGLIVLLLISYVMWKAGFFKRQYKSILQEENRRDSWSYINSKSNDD

COc1ccccc1-c1ccc(C[C@@H](NC(=O)[C@@]2(C)CCCO2)C(=O)O)cc1
bioavailability [1]: 57% | bioavailability [2]: 57% | IC50 [3]: 2.7 nM

C[C@]1(C(=O)N[C@@H](Cc2ccc(-n3ccccc3=O)cc2)C(=O)O)CCCO1
bioavailability [1]: 27% | bioavailability [2]: 27% | IC50 [4]: 12.9 nM

COc1ccccc1-c1ccc(C[C@H](NC(=O)N2CCC=N2)C(=O)O)cc1
IC50 [4]: 19.3 nM

COc1ccccc1-c1ccc(C[C@H](NC(=O)[C@@]2(C)CCCO2)C(=O)O)cc1
IC50 [3]: 13.7 nM

COc1ccccc1-c1ccc(C[C@H](NC(=O)C2CCCCO2)C(=O)O)cc1 (stereo partly specified)
IC50 [4]: 4.9 nM

COc1ccccc1-c1ccc(C[C@H](NC(=O)C2(C)CCCO2)C(=O)O)cc1 (stereo partly specified)
bioavailability [5]: 72% | IC50 [3]: 3.9 nM

C[C@]1(C(=O)N[C@@H](Cc2ccc(-c3ccccc3C#N)cc2)C(=O)O)CCCO1
IC50 [4]: 11 nM

COc1ccccc1-c1ccc(C[C@H](NC(=O)C2CCC(=O)N2)C(=O)O)cc1 (stereo partly specified)
IC50 [4]: 2.8 nM

COc1ccccc1-c1ccc(C[C@H](NC(=O)[C@@H]2CCCN2)C(=O)O)cc1
IC50 [4]: 11 nM

COc1ccccc1-c1ccc(C[C@H](NC(=O)C2CCCO2)C(=O)O)cc1 (stereo partly specified)
IC50 [4]: 1.7 nM

COc1ccccc1-c1ccc(C[C@H](NC(=O)C2CCOC2)C(=O)O)cc1 (stereo partly specified)
IC50 [4]: 36 nM

COc1ccccc1-c1ccc(C[C@H](NC(=O)N2CCCC2)C(=O)O)cc1
IC50 [4]: 17 nM

C[C@]1(C(=O)N[C@@H](Cc2ccc(-c3c(OC4CC4)cccc3OC3CC3)cc2)C(=O)O)CCCO1
IC50 [4]: 2.4 nM

COc1ccccc1-c1ccc(C[C@H](NC(=O)C2CCCC2)C(=O)O)cc1
IC50 [4]: 63 nM

COc1ccccc1-c1ccc(C[C@H](NC(=O)N2CCCN2S(=O)(=O)c2cc(Cl)cc(Cl)c2)C(=O)O)cc1
IC50 [4]: 0.88 nM

C[C@]1(C(=O)N[C@@H](Cc2ccc(-c3ccccc3OC3CC3)cc2)C(=O)O)CCCO1
bioavailability [1]: 76% | bioavailability [2]: 76% | IC50 [4]: 3.9 nM

COc1ccccc1-c1ccc(C[C@H](NC(=O)C2(C)CCCS2(=O)=O)C(=O)O)cc1 (stereo partly specified)
bioavailability [5]: 6% | IC50 [4]: 1.3 nM

C[C@]1(C(=O)N[C@@H](Cc2ccc(-n3ccn(Cc4ccccc4)c3=O)cc2)C(=O)O)CCCO1
IC50 [4]: 4.1 nM

C[C@]1(C(=O)N[C@@H](Cc2ccc(NC(=O)c3c(Cl)cncc3Cl)cc2)C(=O)O)CCCO1
IC50 [4]: 0.2 nM

COc1cccc(OC)c1-c1ccc(C[C@H](NC(=O)[C@@]2(C)CCCO2)C(=O)O)cc1
bioavailability [1]: 42% | bioavailability [2]: 42% | IC50 [3]: 0.3 nM

COc1ccccc1-c1ccc(C[C@H](NC(=O)C2CCCS2(=O)=O)C(=O)O)cc1 (stereo partly specified)
IC50 [4]: 2.1 nM
